According to patent publication US20160346249A1 (priority 2012, published 2016):

What was measured:
[1] = In vitro metabolism in human hepatocytes; conditions: 100 μM
Procedure: Cryopreserved human hepatocytes (male) that are prepared by XenoTech, LLC (Lenexa, Kans.), are thawed on the day of use and resuspended in Waymouth's incubation media. The enzymatic activity of hepatocytes is monitored using 7-ethoxycoumarin and 7-hydroxycoumarin as substrates. […] The incubations are carried out for 4 hours with 1×10^6 viable cells/ml. […] At 0 and 4 hour, cell suspensions are extracted using two volumes of ice cold methanol. After centrifugation, the extracts are stored at −20° C. until further sample processing. The solvent in the samples are dried under a stream of nitrogen, and resuspended in methanol:water (1:1) before analysis.
The extracts of the 4 hour incubation mixture are analyzed by liquid chromatography/electrospray ionization-mass spectrometry (LC/ESI-MS) in the positive and negative ion modes to screen for possible metabolites. HPLC Methods 1 and 2 are used to find potential metabolites, and the HPLC and mass spectrometry systems are described in Table 56. The same instrumentation and methods in HPLC Method 1 are used in HPLC Method 2 with the exception that the mobile phases and gradient are changed to 0.4% HCOOH in H2O for mobile A and CH3OH for mobile phase B. The mass spectrometer is LCQ™ Ion Trap Mass Spectrometer and is in either the positive or negative electrospray mode with the ion spray set at 4.5 kV. The capillary temperature is 250° C., the nitrogen sheath gas flow rate is ˜80 unit, the auxiliary nitrogen gas flow rate is 20 unit, and the collision gas is helium.

CYP2C19 = CYP2C19 (Homo sapiens, UniProt P33261); test: Inhibition of human CYP activity in microsomes: (S)-mephenytoin 4′-hydroxylation; conditions: read-out: IC50, CYP2C19 (S)-Mephenytoin 4′-hydroxylation; pooled human liver microsomes; 10 to 30 min at 37° C.
[2] = test system: FMO, human liver microsome (HLM); test: FMO dependent metabolism (pre-incubation temperature), human liver microsomes; conditions: HLM, positive control
Procedure: (§1) The microsomal incubation mixtures (ca. 0.2 mL) were prepared in triplicate in 0.1M potassium phosphate buffer (pH 7.4) containing 0.25 mg/mL microsomal protein (RLM and HLM), 1 mM EDTA, 4 mM MgCl2, and […]. Incubation mixtures were pre-incubated aerobically in a shaking water bath at 37° C. and 45° C. respectively for ca. 5 minutes. The reaction was initiated by the addition of NADPH (final concentration of 1 mM). […] For the positive controls, benzydamine (Sigma-Aldrich, St. Louis, Mo.) (final concentration 200 μM) was used in the incubation mixture. For the negative controls, water was used in the incubation mixtures instead of microsome protein. The mixtures were kept at ca. −20° C. before analysis by LC-MS/MS.
(§2) The incubation of benzydamine (positive control, 200 μM) was carried out concurrently and the formation of benzydamine N-oxide was monitored by LC-MS/MS.

[3] = test system: FMO, rat liver microsome (RLM); test: FMO dependent metabolism (pre-incubation temperature), rat liver microsomes; conditions: for formation from benzydamine 200 μM, AUC ratio to internal standard (mean ± SD): RLM, positive control
Procedure: as §1, §2

[4] = NADPH dependent metabolism, human liver microsomes; type: in vitro ADME; conditions: HLM
Procedure: (§3) Bicifadine (10 μM) was used as the positive control and the formation of the lactam metabolites of bicifadine (M-12) was monitored.

[5] = NADPH dependent metabolism, rat liver microsomes; type: in vitro ADME; conditions: RLM
Procedure: as §3

[6] = human, in vivo; cited from earlier work
[7] = eight weeks of treatment; cited from earlier work

Chain of CYP2C19 (P33261 whole entry): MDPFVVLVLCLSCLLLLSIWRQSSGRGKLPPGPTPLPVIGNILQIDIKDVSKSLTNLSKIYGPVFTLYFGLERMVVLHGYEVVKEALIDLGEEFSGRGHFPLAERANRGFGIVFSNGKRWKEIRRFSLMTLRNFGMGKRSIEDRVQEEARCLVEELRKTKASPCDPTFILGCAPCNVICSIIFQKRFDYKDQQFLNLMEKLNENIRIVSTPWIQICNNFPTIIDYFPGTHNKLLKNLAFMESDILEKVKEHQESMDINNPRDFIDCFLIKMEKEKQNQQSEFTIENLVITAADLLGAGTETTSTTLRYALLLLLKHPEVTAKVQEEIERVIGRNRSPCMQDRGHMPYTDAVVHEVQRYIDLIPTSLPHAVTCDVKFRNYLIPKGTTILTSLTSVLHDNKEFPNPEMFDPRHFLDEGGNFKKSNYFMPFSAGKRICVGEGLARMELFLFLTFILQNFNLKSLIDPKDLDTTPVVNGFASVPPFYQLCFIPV

CCOc1ccc2ccc(=O)oc2c1 [7-ethoxycoumarin, reference compound]
metabolized after 4 hours incubation ([1]; male, human, hepatocytes, 4 h): 68.9%

O=c1ccc2ccc(O)cc2o1 [7-hydroxycoumarin, reference compound]
metabolized after 4 hours incubation ([1]; activity control substrate): 99.1%

CC[C@@]1(c2ccccc2)C(=O)NC(=O)N(Cc2ccccc2)C1=O [(R)-N-3-benzyl-Phenobarb-ital]
IC50 (CYP2C19): 300 nM

C[N+](C)([O-])CCCOc1nn(Cc2ccccc2)c2ccccc12 [Benzydamine N-oxide, benzydamine N-oxide]
formation from benzydamine 200 μM, AUC ratio to internal standard (mean ± SD) ([2]; pre-treatment 37° C.): 35.70 ± 0.86 | formation from benzydamine 200 μM, AUC ratio to internal standard (mean ± SD) ([2]; pre-treatment 45° C.): 7.68 ± 1.51 | formation from benzydamine 200 μM, AUC ratio to internal standard (mean ± SD) ([3]; pre-treatment 37° C.): 75.35 ± 0.75 | formation from benzydamine 200 μM, AUC ratio to internal standard (mean ± SD) ([3]; pre-treatment 45° C.): 15.86 ± 1.31

O=C1NC[C@H]2C[C@@]12c1ccc(Cl)c(Cl)c1 [EB-10101 isomer, (1S,5R)-5-(3,4-dichlorophenyl)-3-azabicyclo[3.1.0]hexan-4-one]
area ratio isomer vs EB-10101 [4]: ca. 25 fold | area ratio isomer vs EB-10101 [5]: ~140 fold | amount formed with 37° C. vs 45° C. pre-treatment ([3]; rat, 30 min, 10 μM, pH 7.4): 7.3 fold

COC[C@@H]1[C@@H](c2ccc(Cl)c(Cl)c2)C[C@@H]2CC[C@H]1N2 [GSK372475]
benefit in comparison to placebo [6]: failed to demonstrate a significant benefit in comparison to placebo

N[C@@H]1CC[C@@H](c2ccc(Cl)c(Cl)c2)c2ccccc21 [SEP-289]
primary efficacy endpoint vs placebo (17-item HAM-D) [7]: did not meet the primary efficacy endpoint compared to placebo
